Measured values reported in US8703965B2, “Preparation of saturated imidazolinium salts and related compounds” (Materia, Inc., priority 2007, dated 2014).

Experiment: Solubility of the salts in different solvents at different temperature (basis for the separation)
Description: The principle to separate the two salts is the solubility in different solvents at different temperature.

Compound	Solubility in acetone (Room Temperature)	Solubility in hexane (Room Temperature)	Solubility in toluene (100 C.)	Solubility in toluene (Room Temperature)	Solubility in water (Room Temperature)
Br.CCN(C(C)C)C(C)C [i-Pr2NEt—HBr]	soluble	not soluble	soluble	not soluble	very soluble
Cc1cc(C)c(N2C=[N+](c3c(C)cc(C)cc3C)CC2)c(C)c1.[Br-] [sIMes-HBr, 1,3-Dimesitylimidazolinium Bromide]	slightly soluble	not soluble	–	not soluble	slightly soluble
